This is an account of results in ChEMBL document CHEMBL3227967, “Quantitative structure-activity relationships in 1-aryl-2-(alkylamino)ethanol antimalarials” (J Med Chem, 1979).

The experiment has as its system Plasmodium berghei. As to the kind of experiment: Antimalarial activity against Plasmodium berghei. It counts as functional.
`CCCCCCCN(CCCCCCC)CC(O)c1cc2cccnc2c2ccccc12` (stereo not drawn): the “log(1/C)” value is listed as 2.9.

As for `CCCCCCNCC(O)c1cc(-c2ccc(C(F)(F)F)cc2)nc(-c2ccc(C(F)(F)F)cc2)c1` (stereo not drawn), the “log(1/C)” value was determined as 3.96.

On to `C=C[C@H]1CN2CC[C@H]1C[C@H]2[C@H](O)c1ccnc2ccc(OC)cc12.O=C(O)c1ccccc1`, for which the “log(1/C)” value came to 1.98.

For `OC(CC1CCCCN1)C1CC(c2ccccc2)=Nc2c(Cl)cc(Cl)cc21` (stereo not drawn), the “log(1/C)” value was 2.71.

As for `CCCCN(CCCC)CC(O)c1cc2ccccc2c2ccsc12` (stereo not drawn), the “log(1/C)” value is given as 2.22.

`CCCCN(CCCC)CC(O)c1cc2ccc(C(F)(F)F)cc2c2cc(Cl)sc12` (stereo not drawn): the “log(1/C)” value is given as 3.84.

In the case of `CCCCN(CCCC)CC(O)c1cc(-c2ccc(Cl)cc2)cc2cc(Cl)c(OC)cc12` (stereo not drawn), the “log(1/C)” value is on record as 2.96.

Consider `CCCCN(CCCC)CC(O)c1cc2ccc(Cl)cc2nc1-c1ccc(Cl)cc1` (stereo not drawn), for which the “log(1/C)” value is listed as 2.2.

`CCCCCCN(CCCCCC)CC(O)c1cc(-c2ccc(Cl)cc2)nc2c(Cl)cccc12` (stereo not drawn): the “log(1/C)” value worked out at 3.32.

For the compound `CN1CCCC1CC(O)c1cc2ccc(Cl)cc2c2cc(Cl)ccc12` (stereo not drawn), the “log(1/C)” value is 3.46.

As to `CCCCCCCN(CCCCCCC)CC(O)c1cc2c(Cl)cc(Cl)cc2c2ccsc12` (stereo not drawn), the “log(1/C)” value is recorded as 3.

`CCCCN(CCCC)CC(O)c1cc2c(Cl)cc(Cl)cc2c2cnccc12` (stereo not drawn): the “log(1/C)” value is 2.94.

For the compound `OC(CC1CCCCN1)c1cc2cc(Cl)cc(Cl)c2c2cc(Cl)ccc12` (stereo not drawn), the “log(1/C)” value was found to be 4.46.

`COc1ccc(-c2cc(C(O)CC3CCCCN3)c3cc(C)ccc3n2)cc1` (stereo not drawn): the “log(1/C)” value is listed as 3.

Consider `OC(CC1CCCCN1)c1cc(-c2ccc(Cl)cc2)nc2c(C(F)(F)F)cccc12` (stereo not drawn), for which the “log(1/C)” value worked out at 4.45.

`OC(CNC1CCC1)c1cc(-c2ccc(C(F)(F)F)cc2)nc(-c2ccc(C(F)(F)F)cc2)c1` (stereo not drawn): the “log(1/C)” value is recorded as 3.85.

On to `CCCCCCCN(CCCCCCC)CC(O)c1cc2ccc(Cl)cc2c2ccncc12` (stereo not drawn), for which the “log(1/C)” value amounted to 2.31.

Take `CCCCN(CCCC)CC(O)c1cccc2ccc3ccccc3c12` (stereo not drawn): the “log(1/C)” value came out at 2.09.

Take `CCCCN(CCCC)CC(O)c1cc2cc(Br)ccc2c2ccccc12` (stereo not drawn): the “log(1/C)” value is 3.5.

Regarding `CCCCN(CCCC)CC(O)c1cc(Cc2ccccc2)nc2c(Cl)cc(Cl)cc12` (stereo not drawn), the “log(1/C)” value is 2.6.

In the case of `OC(CC1CCCCN1)c1cc2ccc(C(F)(F)F)cc2c2ccc(Cl)cc12` (stereo not drawn), the “log(1/C)” value came to 4.12.

In the case of `CC(C)(C)NCC(O)c1cc2ccccc2c2ccccc12` (stereo not drawn), the “log(1/C)” value worked out at 2.09.

Turning to `CCCCN(CCCC)CC(O)c1cc2ccccc2c2cc(Cl)ccc12` (stereo not drawn), the “log(1/C)” value amounted to 2.77.

With `CN1CCN(CC(O)c2cc(-c3ccccc3)nc3c(Cl)cc(Cl)cc23)CC1` (stereo not drawn), the “log(1/C)” value is reported as 2.48.

With `CCCCCCCCN(CCCCCCCC)CC(O)c1cc(-c2ccc(OC)c(OC)c2)nc2ccc(Cl)cc12` (stereo not drawn), the “log(1/C)” value is listed as 3.11.

For `Cc1ccc(-c2cc(C(O)CC3CCCCN3)c3cc(F)ccc3n2)cc1` (stereo not drawn), the “log(1/C)” value came out at 2.34.

With `OC(CC1CCCCN1)c1cc(Oc2ccc(Cl)cc2)nc2ccc(Cl)cc12` (stereo not drawn), the “log(1/C)” value worked out at 3.23.

For `CCCCN(CCCC)CC(O)c1cc(C(C)(C)C)nc2c1cc(Cl)c1ccccc12` (stereo not drawn), the “log(1/C)” value stood at 2.98.

As for `OC(CC1CCCCN1)c1cc2cc(Br)ccc2c2cc(Br)ccc12` (stereo not drawn), the “log(1/C)” value is listed as 4.13.

As for `OC(CC1CCCCN1)c1cc2ccccc2c2ccccc12` (stereo not drawn), the “log(1/C)” value is recorded as 2.53.

With `CCCCCCCN(CCCCCCC)CC(O)c1cc2ccccc2c2ncccc12` (stereo not drawn), the “log(1/C)” value is 2.25.

As for `CCCC(CCC)NCC(O)c1cc(-c2ccc(C(F)(F)F)cc2)nc(-c2ccc(C(F)(F)F)cc2)c1` (stereo not drawn), the “log(1/C)” value was 4.35.

With `CCCCN(CCCC)CC(O)c1cc(Cl)cc2cc3ccccc3cc12` (stereo not drawn), the “log(1/C)” value is on record as 2.72.

For `CCCCN(CCCC)CC(O)c1cc2cc(S(C)(=O)=O)ccc2c2cc(Cl)c(Cl)cc12` (stereo not drawn), the “log(1/C)” value turned out to be 3.74.

`CCCCN(CCCC)CC(O)c1c(F)c(-c2ccc(Cl)cc2)nc2c(Cl)cc(Cl)cc12` (stereo not drawn): the “log(1/C)” value was determined as 4.22.

In the case of `CCCCN(CCCC)CCC(O)c1cc(-c2ccc(C(F)(F)F)cc2)nc(-c2ccc(C(F)(F)F)cc2)c1` (stereo not drawn), the “log(1/C)” value was 4.57.

In the case of `CCCCN(CCCC)CC(O)c1cc(-c2ccc(Cl)cc2)nc2c(C(F)(F)F)cccc12` (stereo not drawn), the “log(1/C)” value is reported as 3.69.

As for `OC(CC1CCCCN1)c1cc(-c2ccccc2)nc2c(C(F)(F)F)cccc12` (stereo not drawn), the “log(1/C)” value amounted to 3.68.

For the compound `CCCN(CCC)CC(O)c1cc2ccc(C(F)(F)F)cc2c2cc(C(F)(F)F)ccc12` (stereo not drawn), the “log(1/C)” value is 3.92.

Take `CCCCN(CCCC)CC(O)C1CC(c2ccc(Cl)c(Cl)c2)=Nc2c(Cl)cc(Cl)cc21` (stereo not drawn): the “log(1/C)” value was 3.6.

On to `CCCCCCCN(CCCCCCC)CC(O)c1cc2ccccc2c2c(Cl)cccc12` (stereo not drawn), for which the “log(1/C)” value came out at 3.09.

Turning to `OC(CC1CCCCN1)c1cc2cc(Cl)cc(Cl)c2c2cc(C(F)(F)F)ccc12` (stereo not drawn), the “log(1/C)” value was 4.43.

For `CCCCN(CCCC)CC(O)c1cc(-c2c(Cl)cccc2Cl)nc2c(Cl)cc(Cl)cc12` (stereo not drawn), the “log(1/C)” value came to 2.41.

`CCCCCCCN(CCCCCCC)CC(O)c1cc2cnccc2c2ccccc12` (stereo not drawn): the “log(1/C)” value stood at 2.47.

Regarding `CCCCN(CCCC)CC(O)c1cc2ccc(Br)cc2c2sccc12` (stereo not drawn), the “log(1/C)” value is on record as 2.82.

For the compound `CCCCCCCN(CCCCCCC)CC(O)c1cc2ccsc2c2cc(C(F)(F)F)ccc12` (stereo not drawn), the “log(1/C)” value amounted to 2.77.

On to `CCCCCCCN(CCCCCCC)CC(O)c1c(OC)c2cc(Cl)ccc2c2ccc(Cl)cc12` (stereo not drawn), for which the “log(1/C)” value is listed as 3.34.

For `CNCC(O)c1cc2ccc(C(F)(F)F)cc2c2cc(C(F)(F)F)ccc12` (stereo not drawn), the “log(1/C)” value turned out to be 4.23.

Turning to `OC(CC1CCCCN1)c1cc2ccc(C(F)(F)F)cc2c2ccccc12` (stereo not drawn), the “log(1/C)” value was found to be 3.43.

Consider `Cc1ccc(-c2cc(C(O)CC3CCCCN3)c3cccc(C(F)(F)F)c3n2)cc1` (stereo not drawn), for which the “log(1/C)” value came out at 3.94.

Take `CCCCNCC(O)c1cc(-c2cccc(C(F)(F)F)c2)nc(-c2cccc(C(F)(F)F)c2)c1` (stereo not drawn): the “log(1/C)” value was determined as 3.94.

`CCCCN(CCCC)CC(O)c1cc(-c2ccc(Cl)cc2)nc2cc(Cl)c(C)cc12` (stereo not drawn): the “log(1/C)” value was 4.22.

As to `CCCCCN(CCCCC)CC(O)c1cc2ccc(Br)cc2c2cc(Br)ccc12` (stereo not drawn), the “log(1/C)” value is given as 3.72.

For `OC(CC1CCCCN1)c1cc2c(Br)cc(Br)cc2c2cc(C(F)(F)F)ccc12` (stereo not drawn), the “log(1/C)” value was 4.2.

For `CCCCCCCN(CCCCCCC)CCCC(O)c1cc2ccc(C(F)(F)F)cc2c2cc(C(F)(F)F)ccc12` (stereo not drawn), the “log(1/C)” value was found to be 3.72.

Take `CCCCN(CCCC)CC(O)c1cc(-c2ccc(Cl)cc2)nc2cc(Cl)c(OC)cc12` (stereo not drawn): the “log(1/C)” value worked out at 3.87.

Consider `OC(CN1CCN(c2ccccc2)CC1)c1cc(-c2ccccc2)nc2c(Cl)cc(Cl)cc12` (stereo not drawn), for which the “log(1/C)” value stood at 2.66.

For the compound `CCCCN(CCCC)CC(O)c1cc2ccc(C(F)(F)F)cc2c2sccc12` (stereo not drawn), the “log(1/C)” value was 2.98.

`OC(CC1CCCCN1)c1cc(-c2ccccc2)nc2cc(Cl)ccc12` (stereo not drawn): the “log(1/C)” value worked out at 2.72.

For the compound `CCCCCCCN(CCCCCCC)CC(O)c1cc2ccccc2c2cc(C(F)(F)F)ccc12` (stereo not drawn), the “log(1/C)” value is reported as 3.56.

For `CCCCN(CCCC)CC(O)c1cc2c(Cl)cc(Cl)cc2c2cc(C(F)(F)F)ccc12` (stereo not drawn), the “log(1/C)” value is 4.29.

Regarding `OC(CC1CCCCN1)c1cc2cc(Cl)c(Cl)cc2c2cc(Cl)ccc12` (stereo not drawn), the “log(1/C)” value came to 3.69.

Take `Cc1cccc2c(C(O)CC3CCCCN3)cc(-c3ccccc3)nc12` (stereo not drawn): the “log(1/C)” value worked out at 3.38.

On to `CCCCN(CCCC)CC(O)c1cc(C(F)(F)c2ccccc2)nc2c(Cl)cc(Cl)cc12` (stereo not drawn), for which the “log(1/C)” value is given as 2.61.

For the compound `CCCCN(CCCC)CC(O)c1cc2c(Cl)cc(Cl)cc2c2c(Cl)cc(Cl)cc12` (stereo not drawn), the “log(1/C)” value was 4.05.

For `OC(CNC1CCCCC1)c1cc(-c2ccc(C(F)(F)F)cc2)nc(-c2ccc(C(F)(F)F)cc2)c1` (stereo not drawn), the “log(1/C)” value is reported as 4.17.

Take `CCCCN(CCCC)CCC(O)c1cc2ccccc2c2ccccc12` (stereo not drawn): the “log(1/C)” value is recorded as 2.45.

Consider `CCCCN(CCCC)CC(O)c1cccc2cc3cccc(Cl)c3cc12` (stereo not drawn), for which the “log(1/C)” value amounted to 2.26.

`OC(CC1CCCCN1)c1cc2cc(Br)c(Br)cc2c2cc(C(F)(F)F)ccc12` (stereo not drawn): the “log(1/C)” value was 3.58.

For the compound `CCCCCCCN(CCCCCCC)CC(O)c1cc2cc(Cl)cc(Cl)c2nc1-c1ccc(Cl)cc1` (stereo not drawn), the “log(1/C)” value is recorded as 2.43.

Consider `CCCCN(CCCC)CC(O)c1cc2cnccc2c2c(Cl)cc(Cl)cc12` (stereo not drawn), for which the “log(1/C)” value is given as 2.42.

`CCCCCCCCNCC(O)c1cc(-c2ccc(C(F)(F)F)cc2)nc(-c2ccc(C(F)(F)F)cc2)c1` (stereo not drawn): the “log(1/C)” value amounted to 3.76.

Turning to `CCCCN(CCCC)CC(O)c1cc(Oc2ccc(Cl)c(Cl)c2)cc2c(Cl)cc(Cl)cc12` (stereo not drawn), the “log(1/C)” value worked out at 2.49.

With `CCCCN(CCCC)CC(O)c1cc(-c2ccc(Cl)c(Cl)c2)nc2cc(OC)ccc12` (stereo not drawn), the “log(1/C)” value was found to be 3.21.

For `CCCCN(CCCC)CC(O)c1ccc2ccc3cccc(C(F)(F)F)c3c2c1` (stereo not drawn), the “log(1/C)” value is recorded as 2.23.

As for `CCN(CC)CC(O)c1cc(-c2ccc(OC)c(OC)c2)nc2ccc(Cl)cc12` (stereo not drawn), the “log(1/C)” value is on record as 3.12.

Take `CCCCCCCN(CCCCCCC)CC(O)c1cc2ccc(C(F)(F)F)cc2c2cc(Cl)sc12` (stereo not drawn): the “log(1/C)” value turned out to be 3.38.

`CCOC(CCCNCC(O)c1cc2ccc(C(F)(F)F)cc2c2cc(C(F)(F)F)ccc12)OCC` (stereo not drawn): the “log(1/C)” value came to 3.55.

With `CCCCCCN(CCCCCC)CC(O)c1cc(-c2ccc(Cl)c(Cl)c2)nc2ccc(OC)cc12` (stereo not drawn), the “log(1/C)” value came out at 3.35.

With `CCCCN(CCCC)CC(O)c1cc(Cc2ccccc2)nc2c(Cl)cccc12` (stereo not drawn), the “log(1/C)” value was 2.3.

Regarding `CCCCN(CCCC)CC(O)c1cc(/C=C/c2ccc(C(F)(F)F)cc2)nc(-c2ccc(C(F)(F)F)cc2)c1` (stereo not drawn), the “log(1/C)” value was determined as 4.26.

Regarding `CCCCN(CCCC)CC(O)c1c(C)cnc2c1ccc1ccccc12` (stereo not drawn), the “log(1/C)” value was 2.15.

Regarding `CCCCCCN(CCCCCC)CC(O)c1cc2ccccc2c2ccccc12` (stereo not drawn), the “log(1/C)” value is given as 2.4.

For `CCCCN(CCCC)CC(O)c1cc(-c2ccc(I)cc2)nc2c(Cl)cc(Cl)cc12` (stereo not drawn), the “log(1/C)” value is given as 4.5.

As for `Cc1ccc2nc(Nc3ccc(Cl)cc3)cc(C(O)CC3CCCCN3)c2c1` (stereo not drawn), the “log(1/C)” value is reported as 2.87.

As for `CCC(CC)NCC(O)c1cc(-c2ccc(C(F)(F)F)cc2)nc(C(F)(F)F)c1` (stereo not drawn), the “log(1/C)” value is reported as 3.28.

`CCCN(CCC)CC(O)c1cc2ccc(Br)cc2c2cc(Br)ccc12` (stereo not drawn): the “log(1/C)” value worked out at 3.95.

Turning to `OC(CC1CCCCN1)c1cc2cc(C(F)(F)F)ccc2c2ccccc12` (stereo not drawn), the “log(1/C)” value stood at 4.39.
